Data from ChEMBL document CHEMBL1177772, “Design and synthesis of benzoazepin-2-one analogs as allosteric binders targeting the PIF pocket of PDK1” (Bioorg Med Chem Lett, 2010).
Residues, ends and D or L forms follow the SMILES beside them.

Molecular target: T1, 3-phosphoinositide-dependent protein kinase 1 (Homo sapiens, UniProt O15530)
T1 sequence (O15530 whole entry): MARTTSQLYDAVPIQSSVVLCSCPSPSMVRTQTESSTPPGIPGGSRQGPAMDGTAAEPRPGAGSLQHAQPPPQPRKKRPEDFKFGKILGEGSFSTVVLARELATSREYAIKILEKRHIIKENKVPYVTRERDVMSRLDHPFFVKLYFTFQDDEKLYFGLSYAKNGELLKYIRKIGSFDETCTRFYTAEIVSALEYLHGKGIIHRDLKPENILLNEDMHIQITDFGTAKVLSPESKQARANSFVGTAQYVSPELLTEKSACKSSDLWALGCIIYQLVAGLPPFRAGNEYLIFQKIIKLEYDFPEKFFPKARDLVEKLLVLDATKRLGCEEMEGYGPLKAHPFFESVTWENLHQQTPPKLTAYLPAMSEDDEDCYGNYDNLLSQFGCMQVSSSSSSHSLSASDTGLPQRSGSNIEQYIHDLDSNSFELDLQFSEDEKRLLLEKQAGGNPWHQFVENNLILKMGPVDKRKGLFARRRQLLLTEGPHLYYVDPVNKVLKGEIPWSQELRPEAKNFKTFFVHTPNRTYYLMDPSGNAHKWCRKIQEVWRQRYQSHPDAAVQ
Assay: Displacement of PIFtide from His-tagged PDK1 by HTRF assay
Conditions: not given; call rule not given here

EC50	SMILES
Not Active	O=C(O)CN1C(=O)C(Oc2ccccc2)CCc2ccccc21 (stereo unspecified)
Not Active	COC(=O)CN1C(=O)C(OC(=O)c2ccccc2)CCc2ccccc21 (stereo unspecified)
Not Active	COC(=O)CN1C(=O)C(Nc2ccccc2)CCc2ccccc21 (stereo unspecified)
Not Active	COC(=O)CN1C(=O)N(Cc2ccccc2)CCc2ccccc21
Not Active	O=C(O)CN1C(=O)N(Cc2ccccc2)CCc2ccccc21
Not Active	COC(=O)CN1C(=O)C(Sc2ccccc2)CCc2ccccc21 (stereo unspecified)
Not Active	O=C(O)CN1C(=O)C(NS(=O)(=O)c2ccccc2)CCc2ccccc21 (stereo unspecified)

The remaining lines, values behind:

SMILES	EC50
O=C(O)CN1C(=O)C(OC(=O)c2ccccc2)CCc2ccccc21 (stereo unspecified)	Not Active
COC(=O)CN1C(=O)C(NC(=O)c2ccccc2)CCc2ccccc21 (stereo unspecified)	Not Active
O=C(O)CN1C(=O)C(NC(=O)c2ccccc2)CCc2ccccc21 (stereo unspecified)	Not Active
COC(=O)CN1C(=O)C(NS(=O)(=O)c2ccccc2)CCc2ccccc21 (stereo unspecified)	Not Active
COC(=O)CN1C(=O)C(Oc2ccccc2)CCc2ccccc21 (stereo unspecified)	Not Active

Same assay, conditions: read-out: EC50

EC50	SMILES
900 µM	O=C(O)CN1C(=O)C(Nc2ccccc2)CCc2ccccc21 (stereo unspecified)
75 µM	O=C(O)CN1C(=O)C(Sc2ccc(Cl)cc2Cl)CCc2ccccc21 (stereo unspecified)
23 µM	O=C(O)CN1C(=O)C(Sc2ccc(Cl)cc2)CCc2ccccc21 (stereo unspecified)
133 µM	O=C(O)CSC(CC(=O)c1ccc(Cl)cc1)c1ccccc1 (stereo unspecified)

The next lines start with the molecule.

SMILES	EC50
COc1ccc(SC2CCc3ccccc3N(CC(=O)O)C2=O)cc1 (stereo unspecified)	53 µM
O=C(O)CN1C(=O)C(Sc2ccccc2)CCc2ccccc21 (stereo unspecified)	101 µM
O=C(O)CN1C(=O)C(Sc2c(Cl)cccc2Cl)CCc2ccccc21 (stereo unspecified)	45 µM
O=C(O)CN1C(=O)C(Sc2ccc(C(=O)O)cc2)CCc2ccccc21 (stereo unspecified)	187 µM
CC[C@H](C)[C@H](NC(=O)[C@H](Cc1ccc(O)cc1)NC(=O)[C@H](CC(=O)O)NC(=O)[C@H](Cc1ccccc1)NC(=O)[C@H](CC(=O)O)NC(=O)[C@H](CCCNC(=N)N)NC(=O)[C@H](Cc1ccccc1)NC(=O)[C@H](CCSC)NC(=O)[C@H](CCC(=O)O)NC(=O)[C@@H](N)CCC(N)=O)C(=O)N[C@@H](C)C(=O)N[C@@H](CC(=O)O)C(=O)N[C@@H](Cc1c[nH]c2ccccc12)C(=O)O (H-QEMFRDFDYIADW-OH)	10 µM
